Source: PMC6154583, “Optimized 4,5-Diarylimidazoles as Potent/Selective Inhibitors of Protein Kinase CK1δ and Their Structural Relation to p38α MAPK” (Molecules : A Journal of Synthetic Chemistry and Natural …, 2017)

How the values were obtained:
Assay in all cases: ProQinase 33PanQinase selectivity profiling
Assay type in all cases: biochemical
ACV-R2B = molecular target: T1, ACV-R2B (Homo sapiens, UniProt Q13705); settings: 100 nM, relative to control, read-out: Residual activity (%)
T1 construct: purchased ProQinase GmbH (Freiburg, Germany)

CDK6/CycD1 = CDK6/CycD1 (Homo sapiens, UniProt Q00534); settings: 100 nM, relative to control, read-out: Residual activity (%)
CDK5/p35NCK = CDK5/p35NCK (Homo sapiens, UniProt Q00535); settings: 100 nM, relative to control, read-out: Residual activity (%)
CAMKK2 = CAMKK2 (Homo sapiens, UniProt Q96RR4); settings: 100 nM, relative to control, read-out: Residual activity (%)
Chain of CAMKK2 (Q96RR4 whole entry): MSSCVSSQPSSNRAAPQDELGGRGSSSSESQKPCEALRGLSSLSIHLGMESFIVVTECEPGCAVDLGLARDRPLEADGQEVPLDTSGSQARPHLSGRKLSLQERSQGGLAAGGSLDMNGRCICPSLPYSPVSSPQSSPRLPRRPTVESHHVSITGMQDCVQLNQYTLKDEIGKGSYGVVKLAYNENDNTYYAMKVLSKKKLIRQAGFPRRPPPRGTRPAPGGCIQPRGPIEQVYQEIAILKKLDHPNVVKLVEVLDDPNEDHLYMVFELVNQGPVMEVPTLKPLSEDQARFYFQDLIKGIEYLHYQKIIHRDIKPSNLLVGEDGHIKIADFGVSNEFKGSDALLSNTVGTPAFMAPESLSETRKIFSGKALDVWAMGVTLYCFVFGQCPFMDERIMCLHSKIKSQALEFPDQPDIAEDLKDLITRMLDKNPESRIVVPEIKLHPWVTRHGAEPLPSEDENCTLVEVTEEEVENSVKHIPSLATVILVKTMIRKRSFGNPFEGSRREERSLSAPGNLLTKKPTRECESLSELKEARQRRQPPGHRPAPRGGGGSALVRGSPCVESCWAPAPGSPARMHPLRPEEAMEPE

CAMKK1 = CAMKK1 (Homo sapiens, UniProt Q8N5S9); settings: 100 nM, relative to control, read-out: Residual activity (%)
CAMK1D = CAMK1D (Homo sapiens, UniProt Q8IU85); settings: 100 nM, relative to control, read-out: Residual activity (%)
Chain of CAMK1D (Q8IU85 whole entry): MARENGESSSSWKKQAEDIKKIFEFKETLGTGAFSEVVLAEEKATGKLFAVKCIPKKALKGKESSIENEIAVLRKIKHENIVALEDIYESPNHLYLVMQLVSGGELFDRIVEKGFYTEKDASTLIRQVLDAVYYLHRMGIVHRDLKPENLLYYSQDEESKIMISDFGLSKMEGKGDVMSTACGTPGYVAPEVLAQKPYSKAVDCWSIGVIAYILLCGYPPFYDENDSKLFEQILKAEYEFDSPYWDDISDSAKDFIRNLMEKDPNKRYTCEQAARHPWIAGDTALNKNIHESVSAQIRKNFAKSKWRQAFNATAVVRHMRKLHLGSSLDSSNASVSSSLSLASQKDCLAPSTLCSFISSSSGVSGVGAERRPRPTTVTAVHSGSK

EIF2AK2 = molecular target: T2, EIF2AK2 (Homo sapiens, UniProt P19525); settings: 100 nM, relative to control, read-out: Residual activity (%)
T2 construct: purchased ProQinase GmbH

CDK1/CycB1 = CDK1/CycB1 (Homo sapiens, UniProt P06493); settings: 100 nM, relative to control, read-out: Residual activity (%)
CDK1/CycA2 = CDK1/CycA2 (Homo sapiens, UniProt P06493); settings: 100 nM, relative to control, read-out: Residual activity (%)
EGF-R = EGF-R (Homo sapiens, UniProt P00533); settings: 100 nM, relative to control, read-out: Residual activity (%)
B-RAF V600E = B-RAF V600E (Homo sapiens, UniProt P15056, V600E); settings: 100 nM, relative to control, read-out: Residual activity (%)
Chain of B-RAF V600E (P15056 whole entry V600E): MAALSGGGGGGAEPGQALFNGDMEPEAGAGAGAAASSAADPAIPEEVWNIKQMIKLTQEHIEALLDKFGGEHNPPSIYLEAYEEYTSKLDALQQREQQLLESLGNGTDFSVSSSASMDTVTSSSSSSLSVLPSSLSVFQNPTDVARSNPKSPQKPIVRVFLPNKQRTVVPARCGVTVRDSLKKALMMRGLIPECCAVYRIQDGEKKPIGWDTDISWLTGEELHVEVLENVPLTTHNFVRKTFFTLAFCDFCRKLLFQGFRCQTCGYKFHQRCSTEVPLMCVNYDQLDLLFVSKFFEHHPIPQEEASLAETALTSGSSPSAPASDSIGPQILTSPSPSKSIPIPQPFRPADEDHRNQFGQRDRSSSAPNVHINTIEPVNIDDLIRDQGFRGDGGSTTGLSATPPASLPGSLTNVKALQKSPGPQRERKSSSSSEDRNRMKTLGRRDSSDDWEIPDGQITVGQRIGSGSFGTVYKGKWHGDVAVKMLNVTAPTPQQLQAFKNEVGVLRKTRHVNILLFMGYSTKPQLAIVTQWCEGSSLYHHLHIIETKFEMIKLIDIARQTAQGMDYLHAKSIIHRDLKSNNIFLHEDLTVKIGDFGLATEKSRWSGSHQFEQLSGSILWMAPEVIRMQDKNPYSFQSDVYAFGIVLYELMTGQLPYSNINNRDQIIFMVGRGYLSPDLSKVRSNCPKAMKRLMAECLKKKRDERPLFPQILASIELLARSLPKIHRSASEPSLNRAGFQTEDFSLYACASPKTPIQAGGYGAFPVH

CDK9/CycK = CDK9/CycK (Homo sapiens, UniProt P50750); settings: 100 nM, relative to control, read-out: Residual activity (%)
Chain of CDK9/CycK (P50750 whole entry): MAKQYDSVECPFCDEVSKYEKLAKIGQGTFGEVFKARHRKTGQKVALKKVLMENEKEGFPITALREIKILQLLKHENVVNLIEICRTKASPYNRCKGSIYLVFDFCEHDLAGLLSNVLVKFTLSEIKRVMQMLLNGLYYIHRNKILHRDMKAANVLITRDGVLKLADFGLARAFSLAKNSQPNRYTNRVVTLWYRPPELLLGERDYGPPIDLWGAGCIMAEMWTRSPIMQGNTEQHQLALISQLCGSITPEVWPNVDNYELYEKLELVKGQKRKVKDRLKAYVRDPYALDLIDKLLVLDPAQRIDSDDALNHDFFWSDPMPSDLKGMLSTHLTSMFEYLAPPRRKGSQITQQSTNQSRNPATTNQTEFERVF
Chain of CDK9/CycK (O75909 whole entry partner): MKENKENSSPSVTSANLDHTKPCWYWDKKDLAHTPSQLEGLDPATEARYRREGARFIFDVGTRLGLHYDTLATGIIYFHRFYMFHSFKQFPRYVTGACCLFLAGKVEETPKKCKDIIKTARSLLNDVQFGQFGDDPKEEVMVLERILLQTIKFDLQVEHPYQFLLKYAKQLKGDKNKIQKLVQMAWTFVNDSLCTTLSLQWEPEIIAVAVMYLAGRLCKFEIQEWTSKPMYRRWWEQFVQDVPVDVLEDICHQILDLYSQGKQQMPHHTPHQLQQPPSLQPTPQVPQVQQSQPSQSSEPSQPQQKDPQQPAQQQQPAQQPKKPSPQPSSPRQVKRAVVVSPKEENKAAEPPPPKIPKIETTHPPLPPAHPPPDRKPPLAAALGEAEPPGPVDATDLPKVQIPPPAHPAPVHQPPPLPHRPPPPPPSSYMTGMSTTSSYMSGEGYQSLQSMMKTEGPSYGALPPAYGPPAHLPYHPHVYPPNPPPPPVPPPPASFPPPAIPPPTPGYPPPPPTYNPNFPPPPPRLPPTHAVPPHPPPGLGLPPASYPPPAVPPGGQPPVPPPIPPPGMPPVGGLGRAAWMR

ABL2 = ABL2 (Homo sapiens, UniProt P42684); settings: 100 nM, relative to control, read-out: Residual activity (%)
COT = molecular target: T3, COT (Homo sapiens, UniProt P41279); settings: 100 nM, relative to control, read-out: Residual activity (%)
T3 construct: purchased ProQinase GmbH

ARK5 = ARK5 (Homo sapiens, UniProt O60285); settings: 100 nM, relative to control, read-out: Residual activity (%)
ACV-R1 = ACV-R1 (Homo sapiens, UniProt Q04771); settings: 100 nM, relative to control, read-out: Residual activity (%)
Chain of ACV-R1 (Q04771 21-509): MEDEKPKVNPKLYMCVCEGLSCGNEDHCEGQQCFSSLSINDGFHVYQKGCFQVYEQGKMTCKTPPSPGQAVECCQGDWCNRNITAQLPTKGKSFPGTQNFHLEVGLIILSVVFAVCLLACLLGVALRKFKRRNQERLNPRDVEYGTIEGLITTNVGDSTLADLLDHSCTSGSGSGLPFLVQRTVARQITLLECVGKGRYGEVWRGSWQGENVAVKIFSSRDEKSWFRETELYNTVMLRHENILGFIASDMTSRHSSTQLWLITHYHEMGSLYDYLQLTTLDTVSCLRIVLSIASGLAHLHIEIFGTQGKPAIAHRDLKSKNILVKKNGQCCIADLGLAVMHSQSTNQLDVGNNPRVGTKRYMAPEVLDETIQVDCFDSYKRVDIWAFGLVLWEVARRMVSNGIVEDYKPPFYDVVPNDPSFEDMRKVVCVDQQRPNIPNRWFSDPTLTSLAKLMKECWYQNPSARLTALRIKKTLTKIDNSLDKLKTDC

CDK19/CycC = CDK19/CycC (Homo sapiens, UniProt Q9BWU1); settings: 100 nM, relative to control, read-out: Residual activity (%)
CDK2/CycE1 = CDK2/CycE1 (Homo sapiens, UniProt P24941); settings: 100 nM, relative to control, read-out: Residual activity (%)
DAPK1 = DAPK1 (Homo sapiens, UniProt P53355); settings: 100 nM, relative to control, read-out: Residual activity (%)
DDR2 = DDR2 (Homo sapiens, UniProt Q16832); settings: 100 nM, relative to control, read-out: Residual activity (%)
CDC7/ASK = molecular target: T4, CDC7/ASK (Homo sapiens, UniProt O00311); settings: 100 nM, relative to control, read-out: Residual activity (%)
T4 construct: purchased ProQinase GmbH

CHK2 = molecular target: T5, CHK2 (Homo sapiens, UniProt O96017); settings: 100 nM, relative to control, read-out: Residual activity (%)
T5 construct: purchased ProQinase GmbH

ACV-R1B = molecular target: T6, ACV-R1B (Homo sapiens, UniProt P36896); settings: 100 nM, relative to control, read-out: Residual activity (%)
T6 construct: purchased ProQinase GmbH (Freiburg, Germany)

EPHA5 = EPHA5 (Homo sapiens, UniProt P54756); settings: 100 nM, relative to control, read-out: Residual activity (%)
CLK1 = CLK1 (Homo sapiens, UniProt P49759); settings: 100 nM, relative to control, read-out: Residual activity (%)
CAMK2B = CAMK2B (Homo sapiens, UniProt Q13554); settings: 100 nM, relative to control, read-out: Residual activity (%)
B-RAF = B-RAF (Homo sapiens, UniProt P15056); settings: 100 nM, relative to control, read-out: Residual activity (%)
Chain of B-RAF (P15056 whole entry): as the sequence (P15056 whole entry V600E) above, with E600V counted along it

CDK6/CycD3 = CDK6/CycD3 (Homo sapiens, UniProt Q00534); settings: 100 nM, relative to control, read-out: Residual activity (%)
AXL = molecular target: T7, AXL (Homo sapiens, UniProt P30530); settings: 100 nM, relative to control, read-out: Residual activity (%)
T7 construct: purchased ProQinase GmbH (Freiburg, Germany)

CDK8/CycC = CDK8/CycC (Homo sapiens, UniProt P49336); settings: 100 nM, relative to control, read-out: Residual activity (%)
Chain of CDK8/CycC (P49336 whole entry): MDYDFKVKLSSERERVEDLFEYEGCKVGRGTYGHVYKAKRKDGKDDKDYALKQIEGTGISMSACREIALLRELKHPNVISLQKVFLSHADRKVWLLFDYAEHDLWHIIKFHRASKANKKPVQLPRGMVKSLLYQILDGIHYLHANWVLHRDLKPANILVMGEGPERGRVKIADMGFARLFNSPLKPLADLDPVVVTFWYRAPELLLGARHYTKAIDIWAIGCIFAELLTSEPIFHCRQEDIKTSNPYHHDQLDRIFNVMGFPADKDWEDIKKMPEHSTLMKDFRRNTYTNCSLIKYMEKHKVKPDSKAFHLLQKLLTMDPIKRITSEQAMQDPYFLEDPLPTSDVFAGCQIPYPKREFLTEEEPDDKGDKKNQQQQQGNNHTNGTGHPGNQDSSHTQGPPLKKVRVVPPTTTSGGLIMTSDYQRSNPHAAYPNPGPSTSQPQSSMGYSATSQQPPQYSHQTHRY
Chain of CDK8/CycC (P24863 whole entry partner): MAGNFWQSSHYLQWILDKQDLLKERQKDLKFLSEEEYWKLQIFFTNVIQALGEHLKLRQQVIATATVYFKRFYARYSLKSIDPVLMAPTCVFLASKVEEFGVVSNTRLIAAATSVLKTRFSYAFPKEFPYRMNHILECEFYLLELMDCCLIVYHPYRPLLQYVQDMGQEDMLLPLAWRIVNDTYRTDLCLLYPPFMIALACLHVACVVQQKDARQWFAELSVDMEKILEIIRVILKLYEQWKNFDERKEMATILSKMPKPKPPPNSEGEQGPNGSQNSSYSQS

ACV-RL1 = molecular target: T8, ACV-RL1 (Homo sapiens, UniProt P37023); settings: 100 nM, relative to control, read-out: Residual activity (%)
T8 construct: purchased ProQinase GmbH (Freiburg, Germany)

DAPK3 = DAPK3 (Homo sapiens, UniProt O43293); settings: 100 nM, relative to control, read-out: Residual activity (%)
EPHA1 = EPHA1 (Homo sapiens, UniProt P21709); settings: 100 nM, relative to control, read-out: Residual activity (%)
CK1-epsilon = CK1-epsilon (Homo sapiens, UniProt P49674); settings: 100 nM, relative to control, read-out: Residual activity (%)
Chain of CK1-epsilon (P49674 whole entry): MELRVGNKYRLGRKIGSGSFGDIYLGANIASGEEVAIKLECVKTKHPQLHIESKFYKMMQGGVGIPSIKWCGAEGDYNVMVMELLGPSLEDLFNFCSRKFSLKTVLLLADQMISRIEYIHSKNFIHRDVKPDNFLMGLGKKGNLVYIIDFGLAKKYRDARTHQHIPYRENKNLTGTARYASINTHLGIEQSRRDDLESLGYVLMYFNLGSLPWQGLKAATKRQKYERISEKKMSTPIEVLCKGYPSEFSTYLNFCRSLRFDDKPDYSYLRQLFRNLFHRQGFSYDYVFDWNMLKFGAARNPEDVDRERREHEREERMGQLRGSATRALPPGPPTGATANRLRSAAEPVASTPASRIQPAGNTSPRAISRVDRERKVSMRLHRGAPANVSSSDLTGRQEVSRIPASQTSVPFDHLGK

CDK7/CycH/MAT1 = CDK7/CycH/MAT1 (Homo sapiens, UniProt P50613); settings: 100 nM, relative to control, read-out: Residual activity (%)
LCK = LCK (Homo sapiens, UniProt P06239); settings: 100 nM, relative to control, read-out: residual activity
DMPK = DMPK (Homo sapiens, UniProt Q09013); settings: 100 nM, relative to control, read-out: Residual activity (%)
DNA-PK = DNA-PK (Homo sapiens, UniProt P78527); settings: 100 nM, relative to control, read-out: Residual activity (%)
CDC42BPA = molecular target: T9, CDC42BPA (Homo sapiens, UniProt Q5VT25); settings: 100 nM, relative to control, read-out: Residual activity (%)
T9 construct: purchased ProQinase GmbH

CK2-alpha2 = CK2-alpha2 (Homo sapiens, UniProt P19784); settings: 100 nM, relative to control, read-out: Residual activity (%)
ABL1 = ABL1 (Homo sapiens, UniProt P00519); settings: 100 nM, relative to control, read-out: Residual activity (%)
AKT2 aa107-481 = molecular target: T10, AKT2 aa107-481 (Homo sapiens, UniProt P31751); settings: 100 nM, relative to control, read-out: Residual activity (%)
T10 construct: AKT2 aa107-481; purchased ProQinase GmbH (Freiburg, Germany)
T10 sequence (P31751 107-481): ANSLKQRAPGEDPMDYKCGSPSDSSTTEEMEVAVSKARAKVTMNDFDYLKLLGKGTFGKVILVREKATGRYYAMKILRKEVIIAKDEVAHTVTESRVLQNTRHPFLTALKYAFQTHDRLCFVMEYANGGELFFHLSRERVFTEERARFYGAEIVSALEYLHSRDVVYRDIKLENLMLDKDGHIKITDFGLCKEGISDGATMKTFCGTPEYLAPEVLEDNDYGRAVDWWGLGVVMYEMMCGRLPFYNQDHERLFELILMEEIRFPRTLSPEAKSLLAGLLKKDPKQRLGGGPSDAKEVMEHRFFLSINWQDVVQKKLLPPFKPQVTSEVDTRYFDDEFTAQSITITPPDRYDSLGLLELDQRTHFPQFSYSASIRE

COc1ccc(OC)c(CCC(=O)Nc2cc(-c3nc(SC)[nH]c3-c3ccc(F)cc3)ccn2)c1 [11b, 3-(2,5-Dimethoxyphenyl)-N-(4-(5-(4-fluorophenyl)-2-(methylthio)-1H-imidazol-4-yl)-pyridin-2-yl)-propanamide]
remaining activity at 0.1 µM (ACV-R2B): 97%
remaining activity at 0.1 µM (CDK6/CycD1): 105%
remaining activity at 0.1 µM (CDK5/p35NCK): 85%
remaining activity at 0.1 µM (CAMKK2): 96%
remaining activity at 0.1 µM (CAMKK1): 99%
remaining activity at 0.1 µM (CAMK1D): 78%
remaining activity at 0.1 µM (EIF2AK2): 91%
remaining activity at 0.1 µM (CDK1/CycB1): 95%
remaining activity at 0.1 µM (CDK1/CycA2): 91%
remaining activity at 0.1 µM (EGF-R): 113%
remaining activity at 0.1 µM (B-RAF V600E): 102%
remaining activity at 0.1 µM (CDK9/CycK): 103%
remaining activity at 0.1 µM (ABL2): 91%
remaining activity at 0.1 µM (COT): 111%
remaining activity at 0.1 µM (ARK5): 88%
remaining activity at 0.1 µM (ACV-R1): 95%
remaining activity at 0.1 µM (CDK19/CycC): 86%
remaining activity at 0.1 µM (CDK2/CycE1): 99%
remaining activity at 0.1 µM (DAPK1): 96%
remaining activity at 0.1 µM (DDR2): 101%
remaining activity at 0.1 µM (CDC7/ASK): 97%
remaining activity at 0.1 µM (CHK2): 98%
remaining activity at 0.1 µM (ACV-R1B): 101%
remaining activity at 0.1 µM (EPHA5): 97%
remaining activity at 0.1 µM (CLK1): 105%
remaining activity at 0.1 µM (CAMK2B): 103%
remaining activity at 0.1 µM (B-RAF): 91%
remaining activity at 0.1 µM (CDK6/CycD3): 97%
remaining activity at 0.1 µM (AXL): 104%
remaining activity at 0.1 µM (CDK8/CycC): 90%
remaining activity at 0.1 µM (ACV-RL1): 99%
remaining activity at 0.1 µM (DAPK3): 85%
remaining activity at 0.1 µM (EPHA1): 104%
remaining activity at 0.1 µM (CK1-epsilon): 7%
remaining activity at 0.1 µM (CDK7/CycH/MAT1): 102%
remaining activity at 0.1 µM (LCK): 26%
remaining activity at 0.1 µM (DMPK): 103%
remaining activity at 0.1 µM (DNA-PK): 95%
remaining activity at 0.1 µM (CDC42BPA): 104%
remaining activity at 0.1 µM (CK2-alpha2): 90%
remaining activity at 0.1 µM (ABL1): 100%
remaining activity at 0.1 µM (AKT2 aa107-481): 97%
